Assay results taken from patent US4558060A, “Benzoxazolinones” (Riom Laboratories - Cerm S.A., priority 1982, dated 1985).
Structures can show the parent of a compound that is named as a salt. Where two headings read alike, the source gives them in different places.

Assays:
dogs = assay: Pentobarbital-induced heart failure in anaesthetized dogs, intraduodenal administration; format: in vivo; settings: 1 mg/kg I.D.; for Aortic capacity / Bradycardia and hypotension induced by pentobarbital / Inotropic effect: after 20 minutes
Text: In addition to the activity pattern described above the compounds of formula I, in which R1 and R2 both represent hydrogen have a particularly beneficial effect in the treatment of heart failure. The latter activity has been tested using a technique derived from Deitchman and Snyder, Arch.Int. Pharmacodyn. 250, 65 (1981).
After having been anaesthesized dogs under articicial respiration are connected with pieces of apparatus for continuous monitoring the left intraventicular pressure, the dP/dt max, the amplitude of the left ventricular contraction, the aortic capacity, the heart frequency and the arteric pressure.
Heart failure is induced by intravenous administration of pentobarbital at a dose of 20 mg per kg body weight per minute until a decrease of 50% of dP/dt max is obtained after which this level is maintained by pentobarbital administration at a dose of 0.4 mg/kg/min. Ten minutes after the beginning of this heart failure effect the products to be tested are administered. The results are compared with those obtained using Dopamine and Dobutamine as reference compounds.
Then the test was repeated by administering the products intraduodenally (I.D.). Dopamine and Dobutamine were administered at a dose of 10 mg/kg I.D. and the compounds of the invention at a dose of 1 mg/kg.

[1] = Acute toxicity (mortality after 24 hours); settings: mouse, in vivo, po
Protocol: (§1) The acute toxicity and central nervous system activity of the compounds of the invention were investigated in mice using various test-models. These tests were carried out in accordance with the procedures summarised below.
Male mice of the OF1, IFFA, CREDO strain and having an average weight of 22±1 g, receive, by oesophagial intubation, a solution of arabic gum and distilled water (1/2-1/2) containing the compound to be studied, at a rate of 0.25 ml per 20 g of body weight. The symptomatology of the intoxication was observed and the mortality was recorded after 24 hours.

mice [2] = assay: Spontaneous motility; format: in vivo; settings: Mus musculus, 20 min, read-out: Spontaneous motility, variation; for change in vivo at 25 mg/kg: dose 25 mg.kg^-1
Protocol: as §1
Groups of 4 mice prepared as above are placed in circular corridors intersected by infrared beams, making it possible to count the number of movements made by the animals. The number of movements is summed up after 20 minutes and the results are expressed as the percentage variation relative to the group of control animals, which have only received the vehicle (gum arabic/water).

mice [3] = assay: Hypnotic activity (sleep induction time, sleep time); format: in vivo
Protocol: as §1
Mice receive, by intraperitoneal administration, 0.25 ml per 20 g of body weight of a solution consisting of arabic gum and of 0.154M NaCl solution (1/2-1/2) containing 12.5 mg.kg.^-1 of the compound to be studied, and the "sleep induction time"--the time taken for the loss of righting reflex to appear after the animal has been placed in the dorsal decubitus position--and the "sleep time"--the duration of the above loss of reflex--are then noted. For this test, pentobarbital is given as a reference, administered at a dose of 50 mg.kg.^-1.

[4] = dose 50 mg.kg^-1, relative to control animals, 20 minutes
[5] = mice, oesophagial intubation, mortality after 24 hours, read-out: Estimated LD 50
[6] = relative to control animals, 20 minutes
[7] = pentobarbital reference, 50 mg.kg^-1

Cn1c(=O)oc2cc(CCN)ccc21 [Compound 2, 3-Methyl-6-(2-aminoethyl)-benzoxazolinone(hydrochloride)]
Duration of the effects (dogs): at least 60 minutes | Aortic capacity (dogs): increase of the aortic capacity | Bradycardia and hypotension induced by pentobarbital (dogs): recovery of the bradycardia and the hypotension induced by pentobarbital | Inotropic effect (dogs): strong positive inotropic effect

Cn1c(=O)oc2cc(CCN3CCN(c4cccc(C(F)(F)F)c4)CC3)ccc21 [Compound 3]
LD50 at 24 h [1]: 1000 mg/kg | change in vivo at 50 mg/kg (mice [2]; [4]): -97.5%

Cn1c(=O)oc2cc(CCN3CCOCC3)ccc21 [Compound 4]
LD50 at 24 h [1, 5]: 1200 mg/kg | change in vivo at 12.5 mg/kg (mice [2]; dose 12.5 mg.kg^-1, relative to control animals, 20 minutes): -11.9%

Cn1c(=O)oc2cc(CCN3CCN(c4ncccn4)CC3)ccc21 [Compound 7]
LD50 at 24 h [1]: 1200 mg/kg | change in vivo at 50 mg/kg (mice [2]; [4]): -69.9%

O=c1[nH]c2ccc(CCN3CCN(c4cccc(C(F)(F)F)c4)CC3)cc2o1 [Compound 8]
LD50 at 24 h [1]: 1000 mg/kg | change in vivo at 25 mg/kg (mice [2]; [6]): -93.5%

COc1ccccc1N1CCN(CCc2ccc3c(c2)oc(=O)n3C)CC1 [Compound 9, 3-Methyl-6-(2-[4-(2-methoxyphenyl)-piperazin-1-yl]-ethyl)-benzoxazolinone]
LD50 at 24 h [1, 5]: 600 mg/kg | Hypnotic activity, sleep induction time (mice [3]; 12.5 mg.kg^-1, intraperitoneal): 18 ± 7.5 min | Hypnotic activity, sleep time (mice [3]; 12.5 mg.kg^-1, intraperitoneal): 46.2 ± 15 min | change in vivo at 6.25 mg/kg (mice [2]): -93.2%

COc1ccccc1N1CCN(CCc2ccc3[nH]c(=O)oc3c2)CC1 [Compound 10, 6-(2-[4-(2-methoxyphenyl)-piperazin-1-yl]-ethyl)-benzoxazolinone]
LD50 at 24 h [1, 5]: 1000 mg/kg | Hypnotic activity, sleep induction time (mice [3]; 12.5 mg.kg^-1, intraperitoneal): 18.2 ± 4.3 min | Hypnotic activity, sleep time (mice [3]; 12.5 mg.kg^-1, intraperitoneal): 86 ± 15 min | change in vivo at 6.25 mg/kg (mice [2]): -99.3%

CNCCc1ccc2[nH]c(=O)oc2c1 [Compound 12]
LD50 at 24 h [1, 5]: 1200 mg/kg | change in vivo at 50 mg/kg (mice [2]): -28%

NCCc1ccc2[nH]c(=O)oc2c1 [Compound 15]
LD50 at 24 h [1, 5]: 1200 mg/kg | Aortic capacity (dogs): increase of the aortic capacity | Bradycardia and hypotension induced by pentobarbital (dogs): recovery of the bradycardia and the hypotension induced by pentobarbital | Inotropic effect (dogs): strong positive inotropic effect | change in vivo at 50 mg/kg (mice [2]): -23.2%

Cn1c(=O)oc2cc(CCNC3CC3)ccc21 [Compound 16]
LD50 at 24 h [1, 5]: 600 mg/kg | change in vivo at 50 mg/kg (mice [2]): -34.4%

O=c1[nH]c2ccc(CCN3CCN(c4ncccn4)CC3)cc2o1 [Compound 17]
LD50 at 24 h [1]: 480 mg/kg | change in vivo at 25 mg/kg (mice [2]; [6]): -62.8%

Cn1c(=O)oc2cc(CCN3CCN(c4ccc(F)cc4)CC3)ccc21 [Compound 18, 3-Methyl-6-(-[4-(4-fluorophenyl)-piperazin-1-yl]-ethyl)-benzoxazolinone]
LD50 at 24 h [1, 5]: 1000 mg/kg | Hypnotic activity, sleep induction time (mice [3]; 12.5 mg.kg^-1, intraperitoneal): 26.9 ± 6 min | Hypnotic activity, sleep time (mice [3]; 12.5 mg.kg^-1, intraperitoneal): 132 ± 25 min | change in vivo at 6.25 mg/kg (mice [2]): -98.8%

O=c1[nH]c2ccc(CCN3CCN(c4ccc(F)cc4)CC3)cc2o1 [Compound 19]
LD50 at 24 h [1, 5]: 1000 mg/kg | Hypnotic activity (in words) (mice [3]; 12.5 mg.kg^-1, intraperitoneal): strong hypnotic activity | Hypnotic activity, sleep induction time (mice [3]; 12.5 mg.kg^-1, intraperitoneal): 15.1 ± 2 min | Hypnotic activity, sleep time (mice [3]; 12.5 mg.kg^-1, intraperitoneal): 78 ± 16 min | change in vivo at 6.25 mg/kg (mice [2]): -97%

CCCC(C)C1(CC)C(=O)NC(=O)NC1=O (stereo not drawn) [pentobarbital, reference compound]
Hypnotic activity, sleep induction time (reference) (mice [3]; [7]): 9.5 ± 2.2 min | Hypnotic activity, sleep time (reference) (mice [3]; [7]): 48 ± 7 min
